Laboratory results: US20230027864A1, “COMPOSITIONS AND METHODS FOR DELIVERY OF AGENTS TO IMMUNE CELLS” (ModernaTX, Inc., priority 2018, published 2023)

Tests used:
monocytes = assay: LNP association and GFP mRNA expression in monocytes of human PBMCs; type: cell-based; details: for immune cell delivery potentiating ability in monocytes, sterol panel: structural lipid component, FIG. 38; for immune cell delivery potentiating ability in monocytes, helper lipid panel: phospholipid component, FIG. 39; for immune cell delivery potentiating ability in monocytes, amino lipid panel: ionizable lipid component, FIG. 37
Method: (§1) In this Example, LNPs were made with various lipid components and at different ratios and were tested for their ability to transfect monocytes in vitro. For these experiments, the association of the LNP with cells and the expression of mRNA-encoding protein within the transfected cells was assessed at the cell-by-cell level. Peripheral blood mononuclear cells (PBMCs) from human donors were used. PBMCs were predominately T cells (40-60%) B cells (3-15%), and monocytes (15-35%), but also contained small numbers of other cell types. LNPs were incubated with serum or PBS for 30 minutes and then added to the PBMCs. The LNP concentration was 0.050 mg/ml, the LNP volume was 0.1 ml.
(§2) LNPs contained 0.1% Rhodamine-DOPE in addition to the other LNP components to facilitate detection. Thus, the ratios set forth in the tables below include 0.1 for the rhodamine label. For example, 50:10:10:27.9:2:0.1 AL:DSPC:chol:sterol:Cmp 428 indicates 50% amino lipid as the ionizable lipid, 10% DSPC as the phospholipid, 10% cholesterol, 27.9% phytosterol, 2% Compound 428 as the PEG lipid and 0.1% for the rhodamine-DOPE label. To prepare a non-labeled LNP, the same ratios are used except that the 0.1% rhodamine label is omitted and an additional 0.1% of structural lipid (cholesterol or cholesterol/phytosterol blend) is used (e.g., 27.9% becomes 28%).
(§3) Cells were sorted by flow cytometry into subsets based on expression of certain markers: CD3 (T cells), CD20 (B cells), and CD3-, CD20-, CD14+(Monocytes).
(§4) mRNA encoding GFP was used as a model agent to effect expression of an intracellular protein.
(§5) When conducting flow cytometry, the Y-axis was signal from the rhodamine tag on the LNP and the X-axis was the GFP signal showing expression of the protein.
(§6) The “associated” population is any rhodamine+ and/or GFP+ cell and the percent of these cells was calculated by dividing by the total number of cells. The “expression” population is any GFP+ cell and the percent of these cells was calculated by dividing by the total number of cells. The percent of associated cells expressing was obtained by dividing the % expressing cells by the % associated cells.

T cells [1] = assay: LNP association and GFP mRNA expression in T cells of human PBMCs; type: cell-based; details: for immune cell delivery potentiating ability in T cells, amino lipid panel: ionizable lipid component of the LNP, FIG. 30; for immune cell delivery potentiating ability in T cells, sterol panel: structural lipid component of the LNP, FIG. 31; for immune cell delivery potentiating ability in T cells, helper lipid panel: phospholipid component of the LNP, FIG. 32
Method: as §1, with “a second series of experiments, additional compounds,” for “this Example, LNPs were made with various lipid components and at different ratios and”, “tested in the LNPs” for “tested”, “enhance delivery to T cells.” for “transfect monocytes in vitro.”, “(40-60%),” for “(40-60%)”
as §2, §3, §4, §5, §6

T cells [2] = assay: Additional LNPs: T cell transfection in vitro, mOX40L mRNA, labeled LNPs; type: cell-based, human; details: for immune cell delivery potentiating ability in T cells, amino lipid panel: ionizable lipid component, FIG. 43
Method: In this Example, additional LNPs comprising various lipid components and at different ratios were made and tested for their ability to transfect T cells in vitro. Transfection was performed as in Example 5 using LNPs encapsulating an mRNA encoding mouse OX40L. LNPs were labeled and the results were determined for the mean % cells with LNPs associated, the mean % cells expressing mOX40L and the % of LNP-associated cells expressing mOX40L, as described hereinbefore.

splenic CD3+ T cells = assay: Transfection of splenic T cells in vivo in mice
Method: In this Example, LNPs were made with various lipid components identified in the in vitro screens described in Example 17 and mice were administered the LNPs encapsulating a murine OX40L-encoding mRNA. The compositions shown below in Table 26 were tested in which the ratios of the components in each composition was 50% ionizable lipid, 10% phospholipid, 38.5% structural lipid and 1.5% PEG lipid.
Mice were treated intravenously with a single injection at a dose concentration of 0.1 mg/ml and at a dose level of 0.5 mg/kg. PBS was used as a negative control.

CC[C@H](/C=C/[C@@H](C)[C@H]1CC[C@H]2[C@@H]3CC=C4C[C@@H](O)CC[C@]4(C)[C@H]3CC[C@]12C)C(C)C [stigmasterol, reference compound]
immune cell delivery potentiating ability in monocytes, sterol panel (monocytes): exhibited immune cell delivery potentiating ability in monocytes

CCCCCCCCC(CCCCCCCC)OC(=O)CCCCCCCN(CCCCCCCC(=O)OCC(C)CCCCCCC)CCCNc1c(NC)c(=O)c1=O (stereo not drawn) [Compound I-321]
delivery and uptake by T cells, only cholesterol as structural lipid (T cells [1]; Experiment 2, mean % cells expressing the mRNA relative to positive control (Compound X, β-sitosterol)): effective at potentiating delivery and uptake by T cells
immune cell delivery potentiating ability in T cells, amino lipid panel (T cells [1]): exhibited immune cell delivery potentiating ability in T cells
immune cell delivery potentiating ability in T cells, amino lipid panel (T cells [2]): exhibited immune cell delivery potentiating ability in T cells
transfection of CD3+ T cells in vivo, only cholesterol as structural lipid (splenic CD3+ T cells; FIG. 36 lanes 6 and 8, relative to positive control LNP (Compound X, β-sitosterol)): effective at potentiating transfecting CD3+ T cells in vivo
capability to transfect splenic CD3+ T cells in vivo (splenic CD3+ T cells; as ionizable lipid, 0.5 mg/kg i.v., 24 hours, FIG. 36): even higher capability to transfect splenic CD3+ T cells in vivo than the positive control LNP containing Compound X

CCCCCCCCC(CCC)OC(=O)CCCCCCCN(CCCCCCCC(=O)OC(CCCCCCCC)CCCCCCCC)CCCNS(C)(=O)=O (stereo not drawn) [Compound I-330]
immune cell delivery potentiating ability in T cells, amino lipid panel (T cells [1]): exhibited immune cell delivery potentiating ability in T cells

CCCCCCCCC(C)OC(=O)CCCCCCCN(CCO)CCCCCCCC(=O)OC(CCCCCCCC)CCCCCCCC (stereo not drawn) [Compound I-48]
immune cell delivery potentiating ability in T cells, amino lipid panel (T cells [1]): exhibited immune cell delivery potentiating ability in T cells
immune cell delivery potentiating ability in T cells, amino lipid panel (T cells [2]): exhibited immune cell delivery potentiating ability in T cells

CC[C@H](CC[C@@H](C)[C@H]1CC[C@H]2[C@@H]3CC[C@H]4C[C@@H](O)CC[C@]4(C)[C@H]3CC[C@]12C)C(C)C [β-sitostanol]
immune cell delivery potentiating ability in T cells, sterol panel (T cells [1]): exhibited immune cell delivery potentiating ability in T cells
immune cell delivery potentiating ability in monocytes, sterol panel (monocytes): exhibited immune cell delivery potentiating ability in monocytes

CCCCCCCCCCCCCCCCCC(=O)OCC(COP(=O)([O-])OCC[N+]1(C)CCOCC1)OC(=O)CCCCCCCCCCCCCCCCC (stereo not drawn) [Compound H-409]
immune cell delivery potentiating ability in T cells, helper lipid panel (T cells [1]): exhibited immune cell delivery potentiating ability in T cells
immune cell delivery potentiating ability in T cells, helper lipid panel (T cells [2]; phospholipid component, FIG. 45): exhibited immune cell delivery potentiating ability in T cells
immune cell delivery potentiating ability in monocytes, helper lipid panel (monocytes): exhibited immune cell delivery potentiating ability in monocytes

CC(C)[C@H](C)CC[C@@H](C)[C@H]1CC[C@H]2[C@@H]3CC=C4C[C@@H](O)CC[C@]4(C)[C@H]3CC[C@]12C [camposterol]
immune cell delivery potentiating ability in T cells, sterol panel (T cells [1]): exhibited immune cell delivery potentiating ability in T cells
immune cell delivery potentiating ability in monocytes, sterol panel (monocytes): exhibited immune cell delivery potentiating ability in monocytes

CCCCCCCCCOC(=O)CCCCCCCN(CCCCCCCC(=O)OC(CCCCCCCC)CCCCCCCC)CCCNc1c(NCC)c(=O)c1=O [Compound I-292]
immune cell delivery potentiating ability in T cells, amino lipid panel (T cells [1]): exhibited immune cell delivery potentiating ability in T cells
immune cell delivery potentiating ability in T cells, amino lipid panel (T cells [2]): exhibited immune cell delivery potentiating ability in T cells

CCCCCCCC/C=C\CCCCCCCC(=O)OC[C@H](COP(=O)([O-])OCC[N+](C)(C)C)OC(=O)CCCCCCC/C=C\CCCCCCCC [DOPC, 1,2-dioleoyl-sn-glycero-3-phosphocholine, reference compound]
immune cell delivery potentiating ability in monocytes, helper lipid panel (monocytes): exhibited immune cell delivery potentiating ability in monocytes

CCCCCCCCC(CCC)OC(=O)CCCCCCCN(CCO)CCCCCCCC(=O)OC(CCCCCCCC)CCCCCCCC (stereo not drawn) [Compound I-50]
immune cell delivery potentiating ability in T cells, amino lipid panel (T cells [1]): exhibited immune cell delivery potentiating ability in T cells

CCCCCCCCCCCCCC(=O)OCC(COP(=O)(O)OCCN)OC(=O)CCCCCCCCCCCCC (stereo not drawn) [DMPE]
immune cell delivery potentiating ability in T cells, helper lipid panel (T cells [1]): exhibited immune cell delivery potentiating ability in T cells
immune cell delivery potentiating ability in monocytes, helper lipid panel (monocytes): exhibited immune cell delivery potentiating ability in monocytes

CCCCCCCCCCCCCCCCCC(=O)OC[C@H](COP(=O)([O-])OCC[N+](C)(C)C)OC(=O)CCCCCCCCCCCCCCCCC [DSPC, 1,2-distearoyl-sn-glycero-3-phosphocholine, reference compound]
immune cell delivery potentiating ability in T cells, helper lipid panel (T cells [1]): exhibited immune cell delivery potentiating ability in T cells

CCCCCCCCC(CCC)OC(=O)CCCCCCCN(CCCO)CCCCCCCC(=O)OC(CCCCCCCC)CCCCCCCC (stereo not drawn) [Compound I-328]
immune cell delivery potentiating ability in T cells, amino lipid panel (T cells [1]): exhibited immune cell delivery potentiating ability in T cells

CC[C@H](CC[C@@H](C)[C@H]1CC[C@H]2[C@@H]3CC=C4C[C@@H](O)CC[C@]4(C)[C@H]3CC[C@]12C)C(C)C [β-sitosterol, beta-sitosterol, reference compound]
immune cell delivery potentiating ability in T cells, sterol panel (T cells [1]): exhibited immune cell delivery potentiating ability in T cells
immune cell delivery potentiating ability in monocytes, sterol panel (monocytes): exhibited immune cell delivery potentiating ability in monocytes

CCCCCCCCCOC(=O)CCCCCCCN(CCCCCCCC(=O)OC(CCCCCCCC)CCCCCCCC)CCCNc1c(NC)c(=O)c1=O [Compound I-182, Heptadecan-9-yl 8-((3-((2-(methylamino)-3,4-dioxocyclobut-1-en-1-yl)amino)propyl)(8-(nonyloxy)-8-oxooctyl)amino)octanoate]
immune cell delivery potentiating ability in T cells, amino lipid panel (T cells [1]): exhibited immune cell delivery potentiating ability in T cells
immune cell delivery potentiating ability in T cells, amino lipid panel (T cells [2]): exhibited immune cell delivery potentiating ability in T cells
immune cell delivery potentiating ability in monocytes, amino lipid panel (monocytes): exhibited immune cell delivery potentiating ability in monocytes

CCCCCCCCCOC(=O)CCCCCCCN(CCCCCCCC(=O)OC(CCCCCCCC)CCCCCCCC)CCCNS(C)(=O)=O [Compound I-109]
immune cell delivery potentiating ability in T cells, amino lipid panel (T cells [1]): exhibited immune cell delivery potentiating ability in T cells
immune cell delivery potentiating ability in monocytes, amino lipid panel (monocytes): exhibited immune cell delivery potentiating ability in monocytes

CCCCCCCCCCC(=O)CCCCCCCN(CCCCCCCC(=O)OC(CCCCCCCC)CCCCCCCC)CCCNC(=S)N(C)C [Compound I-111]
immune cell delivery potentiating ability in T cells, amino lipid panel (T cells [1]): exhibited immune cell delivery potentiating ability in T cells
immune cell delivery potentiating ability in monocytes, amino lipid panel (monocytes): exhibited immune cell delivery potentiating ability in monocytes

CCCCCCCCCOC(=O)CCCCCCCN(CCCCCCCC(=O)OC(CCCCCCCC)CCCCCCCC)CCCNC(=O)OC [Compound I-181]
immune cell delivery potentiating ability in T cells, amino lipid panel (T cells [1]): exhibited immune cell delivery potentiating ability in T cells
immune cell delivery potentiating ability in T cells, amino lipid panel (T cells [2]): exhibited immune cell delivery potentiating ability in T cells
immune cell delivery potentiating ability in monocytes, amino lipid panel (monocytes): exhibited immune cell delivery potentiating ability in monocytes
